Laboratory results reported in patent US20060009520A1, “Retinoid-based methods for altering macrophage cholesterol” (priority 2004, published 2006).

What was measured:
[1] = test system: RARα protein; assay: Western blot of nuclear RARα in RARγ-deficient macrophages; format: cell-based, mouse; settings: TTNPB treatment
Procedure: Nuclear protein extracts from tissues and macrophages were isolated according to the following method. Tissue samples and cells were first homogenized on ice and then lysed in lysis buffer (10 mM Tris [pH 7.5], 3 mM MgCl2, 10 mM NaCl, 0.5% NP-40) containing protease inhibitor cocktail. The nucleus was then pelleted by centrifugation for 10 min at 6,000× g, immediately resuspended in a nucleus suspension buffer (250 mM Tris [pH 8.0], 60 mM KCl, I mM dithiothrietol), and then rotated for 1 h. After centrifugation for 5 min at 6000× g, the solubilized nuclear proteins were separated by electrophoresis with a 4 to 15% gradient gel (Bio-Rad), transferred to nitrocellulose membrane (Trans-Blot transfer medium; Bio-Rad), and probed with anti-RARγ and anti-RARα antibodies (Santa Cruz Biotechnology, Santa Cruz, Calif.) and their respective horseradish peroxidase-conjugated secondary antibodies according to the manufacturer's recommendations. The intensities of the bands were quantified by using ImageQuant and normalized to (β-actin.

[2] = Plasma and hepatic lipid analysis; format: in vivo, mouse; settings: mice; for Hepatic lipid Cholesterol / Hepatic lipid Triglycerides / Plasma lipid Cholesterol / Plasma lipid Triglycerides: 24 h
Procedure: Mice were fasted for 3 h before blood collection. Plasma was separated by centrifugation and kept at −80° C. until lipid analysis. Liver tissue samples (50 to 75 mg) were homogenized in PBS. Lipids were then extracted with chloroform-methanol (2/1 [vol/vol]) and redissolved in isopropanol. Triglyceride and cholesterol were measured in plasma and in the liver lipid extracts by using commercial kits (Wako Chemicals, Neusse Germany).

[3] = test system: ABCA1, ABCG1, SREBP-1c, apoE, LXRα, Cyp26 mRNA; assay: Quantitative real-time PCR of LXR target genes and Cyp26 in mouse peritoneal macrophages; format: cell-based
Procedure: Total RNA was isolated from mouse peritoneal macrophages or ˜50 mg of mouse liver tissue by using the RNeasy Mini kit (Qiagen, Valencia, Calif.) or RNA-Bee reagent (Tel-Test, Inc., Friendswood, Tex.), respectively, according to the manufacturer's protocol. Real-time quantitative PCR assays were performed by using the Mx4000 Quantitative PCR System (Stratagene, La Jolla, Calif.). Briefly, 5 μg of total RNA was treated with RNase-free DNase I (Ambion, Austin, Tex.), and first-strand cDNA was synthesized with oligo(dT)12-18 by using a Superscript II RNase H^− reverse transcriptase reagent kit (Invitrogen) according to the manufacturer's protocol. For quantification of mouse ABCA1, ABCG1, SREBP-1c, LXRα, ApoE, and fatty acid synthase (FAS) mRNA levels, each amplification mixture contained 62.5 ng of cDNA, appropriate concentrations of forward and reverse primers and of dual-labeled fluorogenic probe (Biosearch Technologies, Novato, Calif.), and 12.5 μl of TaqMan Universal PCR master mix (Applied Biosystems, Foster City, Calif.). PCR thermocycling parameters were 50° C. for 2 min, 95° C. for 10 min, and 45 cycles of 95° C. for 15 s and 60° C. for 1 min. All samples were analyzed for β-actin expression in the same run. Quantitative expression values were extrapolated from standard curves for the gene of interest with 10-fold dilutions of cDNA (in triplicate). Each sample was normalized to β-actin, triplicates were averaged, and relative mRNA levels were determined. The following mouse primers and probes were used: mouse ABCA1 (mABCA1) forward (F) (5′-[…]-3′), mABCA1 reverse (R) (5′-[…]-3′), and mABCA1 TaqMan probe (5′-FAM-[…]-BHQ-3′); mABCG1 F (5′-[…]-3′), mABCG1 R (5′-[…]-3′), and mABCG1 TaqMan probe (5′-FAM-[…]-BHQ-3′); mSREBP-1c F (5′-[…]-3′), mSREBP-1c R (5′-[…]-3′), and mSREBP-1c TaqMan probe (5′-FAM-[…]-BHQ-3′); mApoE F (5′-[…]-3′), mApoE R (5′-[…]-3′), and mApoE TaqMan probe (5′-FAM-[…]-BHQ-3′); mLXRα F (5′-[…]-3′), mLXRα R (5′-[…]-3′), and mLXRα TaqMan probe (5′-FAM-[…]-BHQ-3′); mFAS F (5′-[…]-3′), mFAS R (5′-[…]-3′), and mFAS TaqMan probe (5′-FAM-[…]-BHQ-3′); and mβ-actin F (5′-[…]-3′), mβ-actin R (5′-[…]-3′), and mβ-actin TaqMan probe (5′-JOE-[…]-BHQ-3′).
For quantification of mouse Cyp26 mRNA levels, each amplification mixture (25 μ) contained 62.5 ng of cDNA, 100 nM concentrations of reverse and forward primers, and 2.5 μl of 10× SYBR Green PCR master mix (Perkin-Elmer Life Sciences, Boston, Mass.). Quantitative expression values were extrapolated from standard curves for Cyp26 expression with 10-fold dilutions of cDNA (in triplicate). Each sample was normalized to β-actin that was deduced from TaqMan assays, triplicate results were averaged, and relative Cyp26 mRNA levels were determined. The primers mCyp26 F (5′-[…]-3′) and mCyp26 R (5′-[…]-3′) were used. RNA measurements from human monocyte-derived macrophages were performed as described previously (10, 44).

[4] = mouse peritoneal macrophages, TTNPB 1 μM, 24 h

C/C(=C\c1ccc(C(=O)O)cc1)c1ccc2c(c1)C(C)(C)CCC2(C)C [TTNPB, 4-[E-2-5,6.7.8-tetrahydro-5,5,8,8-tetramethyl-2-naphthalenyl-l-propenyl]benzoic acid]
decrease of nuclear RARα [1]: ~2 fold
Hepatic lipid Cholesterol ([2]; 1 mg/kg intraperitoneally): 1.43 ± 0.07 μg/mg of tissue
Hepatic lipid Triglycerides ([2]; 1 mg/kg intraperitoneally): 11.57 ± 4.05 μg/mg of tissue
Plasma lipid Cholesterol ([2]; 1 mg/kg intraperitoneally): 64.1 ± 8.0 mg/dL
Plasma lipid Triglycerides ([2]; 1 mg/kg intraperitoneally): 35.1 ± 4.0 mg/dL
Hepatic lipid Cholesterol ([2]; 10 mg/kg intraperitoneally): 1.31 ± 0.20 μg/mg of tissue
Hepatic lipid Triglycerides ([2]; 10 mg/kg intraperitoneally): 9.25 ± 1.98 μg/mg of tissue
Plasma lipid Cholesterol ([2]; 10 mg/kg intraperitoneally): 58.0 ± 4.9 mg/dL
Plasma lipid Triglycerides ([2]; 10 mg/kg intraperitoneally): 33.1 ± 3.1 mg/dL
effect on hepatic triglyceride content ([2]; intraperitoneal): did not result in an increase
effect on triglyceride levels in plasma ([2]; intraperitoneal, higher doses): significant reduction
ABCA1 mRNA [3, 4]: induction of macrophage ABCA1 mRNA
SREBP-1c mRNA [3, 4]: no effect
Cyp26 mRNA increase ([3]; murine macrophages): 30 fold
